Test results as given in US20240026300A1, “KIDNEY EXTRACELLULAR MATRIX-DERIVED SCAFFOLD FOR CULTURE AND TRANSPLANTATION OF KIDNEY ORGANOID AND METHOD OF PREPARING THE SAME” (CELLARTGEN INC., priority 2020, published 2024).

Tested on: mouse kidney organoid
Test: Kidney fibrosis model by TGF-β treatment of kidney organoid
Format: cell-based
Procedure: A kidney fibrosis model was constructed using a kidney organoid cultured in the KEM hydrogel. To this end, kidney fibrosis was induced by treatment of a mouse kidney organoid with TGF-b. On day 9 of kidney organoid culture (subculture once on day 7 and additional culture for 2 days), the kidney organoids were treated with each concentration of TGF-β for 3 days and then analyzed on day 12. A kidney organoid not treated with TGF-β (NT, No treatment) was compared as a control group.

Substance: TGF-β
- Acta2 and Colla1 (fibrosis markers) mRNA expression levels, qPCR (TGF-β for 3 days, analyzed day 12): increased in proportion to the increase in treatment concentration
- kidney organoid morphology and growth (each concentration of TGF-β for 3 days, analyzed day 12): exhibited morphological changes and did not grow well
- hydrogel and organoid appearance after TGF-β (organoid cultured in 7 mg/ml KEM hydrogel): the KEM hydrogel contracted and fibrosis-induced organoids agglomerated in a mass
- Vimentin, COL1, α-SMA (fibrosis markers) expression, immunostaining (organoids in Matrigel and KEM scaffolds): expression of all fibrosis markers was increased
